In paper PMC12670425, “Mechanistic Characterization of a Small Molecule as a Direct NLRP3 Inhibitor via Binding to the NACHT Domain” (Journal of Medicinal Chemistry, 2025):
pIC50, pKd: −log10 of the molar value. Values belong to the compound of their own block, whether it stands above or below them.

Key:
NLRP3 [1] = biological target: T1, NLRP3 (Mus musculus, UniProt Q8R4B8); experiment: Photoaffinity labeling of recombinant NLRP3 with YM-I-27 and NBD-Azide click, with competition; type: binding
T1 construct: The recombinant full-length NLRP3 protein was expressed and purified as previously described using Expi293F cells; FLAG (N); host or cells: Expi293F
T1 sequence (Q8R4B8 whole entry): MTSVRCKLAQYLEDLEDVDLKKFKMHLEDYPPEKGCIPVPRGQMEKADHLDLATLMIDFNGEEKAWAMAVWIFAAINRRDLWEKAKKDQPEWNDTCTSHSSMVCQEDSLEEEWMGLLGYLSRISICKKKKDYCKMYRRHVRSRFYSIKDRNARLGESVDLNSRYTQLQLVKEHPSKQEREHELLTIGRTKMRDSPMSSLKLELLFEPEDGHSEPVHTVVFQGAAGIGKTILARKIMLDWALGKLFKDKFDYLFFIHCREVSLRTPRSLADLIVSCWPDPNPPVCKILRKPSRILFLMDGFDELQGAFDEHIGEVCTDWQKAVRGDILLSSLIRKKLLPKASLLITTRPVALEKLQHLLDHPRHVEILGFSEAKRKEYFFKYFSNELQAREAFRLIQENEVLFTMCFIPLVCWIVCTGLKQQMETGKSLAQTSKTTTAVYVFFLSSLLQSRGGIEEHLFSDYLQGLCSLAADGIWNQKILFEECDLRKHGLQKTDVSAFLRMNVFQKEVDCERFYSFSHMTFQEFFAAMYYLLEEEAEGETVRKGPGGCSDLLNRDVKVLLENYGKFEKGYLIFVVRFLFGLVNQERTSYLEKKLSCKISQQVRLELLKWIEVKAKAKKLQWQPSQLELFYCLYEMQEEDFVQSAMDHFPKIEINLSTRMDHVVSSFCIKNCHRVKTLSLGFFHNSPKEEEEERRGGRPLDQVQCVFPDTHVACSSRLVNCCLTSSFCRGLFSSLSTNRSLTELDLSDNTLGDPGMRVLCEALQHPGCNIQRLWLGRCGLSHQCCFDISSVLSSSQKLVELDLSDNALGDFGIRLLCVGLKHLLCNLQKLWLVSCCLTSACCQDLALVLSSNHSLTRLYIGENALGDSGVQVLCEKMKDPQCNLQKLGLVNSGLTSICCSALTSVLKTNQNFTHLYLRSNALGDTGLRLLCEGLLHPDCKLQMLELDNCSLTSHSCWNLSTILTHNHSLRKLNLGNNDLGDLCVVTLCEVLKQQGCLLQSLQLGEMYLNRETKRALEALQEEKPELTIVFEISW
Protocol: 30 μL aliquots of recombinant NLRP3 or a mixture of J774A.1 cell lysate and NLRP3 were incubated with or without YM-I-27 at the indicated concentrations at 37 °C for 30 min. The samples were then placed on ice and irradiated at 365 nm for 15 min. Subsequently, 1 μL of NBD-Azide (5 mM) or Biotin-PEG3-Azide (5 mM) was added to the samples, followed by the addition of 1 μL of CuSO4 (50 mM), tris(benzyltriazolylmethyl)-amine (TBTA) (30 mM), and tris(2-carboxyethyl)-phosphine (TCEP) (100 mM). The CuAAC reactions were agitated at room temperature for 1 h, and proteins were precipitated with prechilled methanol and left to dry. The protein pellets were then suspended in 30 μL of 2x SDS loading buffer and heated for 10 min at 95 °C. […] The Biotin-PEG3-Azide-labeled proteins were then transferred to membranes and analyzed by Western blotting using streptavidin-HRP and NLRP3 antibodies, respectively.

NLRP3 [2] = biological target: T1, NLRP3; experiment: In situ proteome click labeling in J774A.1 cell lysate spiked with NLRP3; type: binding, murine; details: YM-I-27 3 and 10 μM; Biotin-PEG3-Azide click; J774A.1 lysate:NLRP3 20:1
Protocol: 30 μL aliquots of recombinant NLRP3 or a mixture of J774A.1 cell lysate and NLRP3 were incubated with or without YM-I-27 at the indicated concentrations at 37 °C for 30 min. The samples were then placed on ice and irradiated at 365 nm for 15 min. Subsequently, 1 μL of NBD-Azide (5 mM) or Biotin-PEG3-Azide (5 mM) was added to the samples, followed by the addition of 1 μL of CuSO4 (50 mM), tris(benzyltriazolylmethyl)-amine (TBTA) (30 mM), and tris(2-carboxyethyl)-phosphine (TCEP) (100 mM). The CuAAC reactions were agitated at room temperature for 1 h, and proteins were precipitated with prechilled methanol and left to dry. The protein pellets were then suspended in 30 μL of 2x SDS loading buffer and heated for 10 min at 95 °C. The SDS-PAGE gels of NBD-Azide-labeled proteins were then washed with washing buffer (10% acetic acid, 40% methanol in water) for 2 h and imaged using ChemiDoc MP Imaging System (Bio-Rad) with Alexa Fluor 488 (λex = 490 nm, λem = 525 nm). The Biotin-PEG3-Azide-labeled proteins were then transferred to membranes and analyzed by Western blotting using streptavidin-HRP and NLRP3 antibodies, respectively.

NLRP3 inflammasome = biological target: T2, NLRP3 inflammasome (Mus musculus, UniProt Q8R4B8); experiment: IL-1β production in J774A.1 cells upon NLRP3 inflammasome activation (ELISA); type: cell-based, murine; details: for pIC50: LPS/ATP activation
T2 construct: endogenous in cells; host or cells: J774A.1 murine macrophages (LPS- or Pam3CSK4-primed)
Protocol: The levels of IL-1β and TNF-α in the supernatant were measured by ELISA.

endogenous NLRP3 = biological target: T3, endogenous NLRP3 (Mus musculus, UniProt Q8R4B8); experiment: Immunocytochemistry FRET assay in J774A.1 cells; type: cell-based, murine; details: LPS-treated J774A.1 cells; TAMRA acceptor clicked to probe
T3 construct: endogenous in cells; host or cells: J774A.1 murine macrophages (LPS- or Pam3CSK4-primed)
Protocol: J774A.1 cells were treated with 1 μg/mL LPS for 4.5 h, and the photoactive probe (YM-I-27) was added and incubated for 30 min. Cells were irradiated at 365 nm for 30 min on ice and were fixed and permeabilized following the Immunofluorescence Microscopy procedures. The click reaction was performed in PBS containing TAMRA-N3 (30 μM), CuSO4 (800 μM), TBTA (500 μM), and TCEP (500 μM) at room temperature in the dark for 2.5 h. Cells were thoroughly washed with PBS and blocked by following the above procedures. Cells were then treated with anti-NLRP3 (cryo-2, 1:200) for 1.5 h, followed by Alexa Fluor 488-conjugated antimouse secondary antibody (Thermo Fisher, 4 μg/mL). Coverslips were mounted to slides, and data were acquired using a Zeiss LSM710 confocal microscope (Zeiss) and a 440 nm pulsed laser. The difference in the fluorescence lifetime was calculated by subtracting the median lifetime of Alexa Fluor 488 (donor) in the absence and presence of the YM-I-27 probe clicked with TAMRA (acceptor).

NLRP3, NEK7, ASC = biological target: T4, NLRP3, NEK7, ASC (Mus musculus, UniProt Q8R4B8); experiment: Photoaffinity labeling and pull-down with YM-I-85 in LPS-primed J774A.1 cell lysates; type: binding, murine; details: UV irradiation
T4 construct: endogenous in cells; host or cells: J774A.1 murine macrophages (LPS- or Pam3CSK4-primed)
Protocol: LPS-primed J774A.1 cells were lysed with NP-40 lysis buffer (50 mM Tris-HCl at pH 8, 150 mM NaCl, 1.0% NP-40, supplemented with cOmplete mini protease inhibitor cocktail) and centrifuged at 20,000g for 20 min at 4 °C. The supernatant was diluted to a concentration of 1.2 mg/mL and incubated with the competing compound for 1 h on ice, followed by incubation with YM-I-85 for 1 h on ice. Samples were irradiated at 365 nm for 15 min and then incubated with Streptavidin Agarose Resin (Thermo Fisher) overnight at 4 °C. The resins were washed once with 0.1% SDS in PBS and twice with 1% NP-40 in PBS before eluting with SDS-PAGE loading buffer and boiling. Beads were spun down, and the supernatants were analyzed by immunoblotting.

caspase-1 = biological target: T5, caspase-1 (Homo sapiens, UniProt P29466); experiment: In vitro caspase-1 cleavage assay (recombinant YTHDF2 substrate); details: recombinant caspase-1; YQ128 1, 3 and 10 μM
T5 sequence (P29466 120-297 limits assumed): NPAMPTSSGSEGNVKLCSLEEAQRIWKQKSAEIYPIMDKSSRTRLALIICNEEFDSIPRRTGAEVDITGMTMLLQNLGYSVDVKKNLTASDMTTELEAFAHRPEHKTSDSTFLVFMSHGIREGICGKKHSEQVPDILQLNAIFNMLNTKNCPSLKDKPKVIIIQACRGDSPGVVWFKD
T5 sequence (P29466 317-404 limits assumed): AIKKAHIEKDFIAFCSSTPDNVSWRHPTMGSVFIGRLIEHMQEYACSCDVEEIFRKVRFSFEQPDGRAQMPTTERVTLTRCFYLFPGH
Protocol: The reactions were then terminated by boiling in 2× SDS sample buffer, and the samples were analyzed by Western blotting.

[3] = system: full-length NLRP3, PYD-NACHT fragment, PYD fragment; experiment: Drug affinity responsive target stability (DARTS); type: binding, human; details: YQ128 50 μM; 50–200 ng Pronase per μg protein
Protocol: Then, 0.1 mg/mL Pronase (Sigma-Aldrich) was added at the protease to protein ratio, between 50 and 200 ng Pronase per μg of protein for 7.5–30 min at room temperature. The reaction was stopped by the addition of a 20x protease inhibitor cocktail and incubated on ice for 10 min. Protein samples were analyzed by immunoblotting.

[4] = system: NLRP3 and pro-IL-1β expression; experiment: Western blot of LPS-induced NLRP3 and pro-IL-1β (priming stage) in J774A.1 cells; type: cell-based, murine; details: YQ128 10 μM, curcumin 150 μM, MCC950 1 μM, LPS 1 μg/mL
NLRP3 NACHT domain = biological target: T6, NLRP3 NACHT domain (Homo sapiens, UniProt Q96P20); experiment: Surface plasmon resonance (SPR); type: binding; details: biotinylated NACHT protein; single-cycle kinetics, 1:1 model
T6 construct: (K131-L679)-Avi plasmid; 8His-Strep II-ZZ-TEV site (N, cleaved yes); made in house; host or cells: Sf21 insect cells (baculovirus)
T6 sequence (Q96P20 131-679): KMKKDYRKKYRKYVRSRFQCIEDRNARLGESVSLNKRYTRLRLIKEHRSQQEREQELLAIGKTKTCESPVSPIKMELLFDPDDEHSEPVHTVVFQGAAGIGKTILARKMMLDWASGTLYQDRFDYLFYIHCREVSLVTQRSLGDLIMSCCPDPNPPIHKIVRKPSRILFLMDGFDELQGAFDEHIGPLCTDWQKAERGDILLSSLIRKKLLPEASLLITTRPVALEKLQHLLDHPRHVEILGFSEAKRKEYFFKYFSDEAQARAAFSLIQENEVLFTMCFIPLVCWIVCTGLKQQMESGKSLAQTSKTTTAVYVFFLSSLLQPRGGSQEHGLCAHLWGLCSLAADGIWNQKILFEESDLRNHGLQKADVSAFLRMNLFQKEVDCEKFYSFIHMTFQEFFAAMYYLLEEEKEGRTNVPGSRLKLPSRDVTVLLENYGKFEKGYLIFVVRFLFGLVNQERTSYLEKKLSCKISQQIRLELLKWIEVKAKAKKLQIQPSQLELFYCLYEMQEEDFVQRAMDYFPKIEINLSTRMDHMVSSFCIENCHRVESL
Protocol: Human biotinylated-NACHT domain of NLRP3 was expressed in Sf21 insect cells using the pFastBac1–8His-Strep II-ZZ-TEV-NLRP3­(K131-L679)-Avi plasmid. For protein expression, 1.6 L of insect cells were cultured with a viral stock of the second passage for 48 h at 27 °C. Cells were collected, lysed in lysis buffer (50 mM HEPES pH 7.5, 500 mM NaCl, 10% glycerol, 1 mM MgCl2, 1 mM TCEP, 100 μM ATP) and centrifuged at 16,000 rpm for 60 min. The supernatant was loaded onto a Ni Bestarose FF column and eluted with lysis buffer containing 300 mM imidazole. The sample was biotinylated in a tube containing BirA enzyme (1:100 (w/w) to protein) with biotin buffer and TEV protease (1:10 (w/w) to protein), and the reaction was incubated at 4 °C overnight. The sample was collected and eluted with a lysis buffer containing 75 mM biotin from Strep-Tactin XT columns. The biotinylated NACHT protein was further purified with HiLoad 16/600 Superdex 200 pg column with an elution buffer (50 mM HEPES pH 7.5, 500 mM NaCl, 10% glycerol, 1 mM MgCl2, 1 mM TCEP).
SPR experiments were performed on a Biacore 1K system with streptavidin sensor chip (Series S Sensor Chip SA, Cytiva) according to the reported procedure. The system was flushed with running buffer (10 mM HEPES, pH 7.4, 150 mM NaCl, 0.5 mM ADP, 0.5 mM TCEP, 2 mM MgCl2, 0.05% Tween 20, 2% DMSO). […]

ASC specks = experiment: ASC speck formation by immunofluorescence in J774A.1 cells; type: cell-based, murine; details: LPS/nigericin, YQ128 10 and 20 μM
[5] = biological target: T7, recombinant human NLRP3 protein (Homo sapiens, UniProt Q96P20); experiment: Microscale thermophoresis (MST); type: binding; details: n = 3
T7 construct: The recombinant full-length NLRP3 protein was expressed and purified as previously described using Expi293F cells; 10His (N); 6His (C); made in house; host or cells: Expi293F
T7 sequence (Q96P20 whole entry): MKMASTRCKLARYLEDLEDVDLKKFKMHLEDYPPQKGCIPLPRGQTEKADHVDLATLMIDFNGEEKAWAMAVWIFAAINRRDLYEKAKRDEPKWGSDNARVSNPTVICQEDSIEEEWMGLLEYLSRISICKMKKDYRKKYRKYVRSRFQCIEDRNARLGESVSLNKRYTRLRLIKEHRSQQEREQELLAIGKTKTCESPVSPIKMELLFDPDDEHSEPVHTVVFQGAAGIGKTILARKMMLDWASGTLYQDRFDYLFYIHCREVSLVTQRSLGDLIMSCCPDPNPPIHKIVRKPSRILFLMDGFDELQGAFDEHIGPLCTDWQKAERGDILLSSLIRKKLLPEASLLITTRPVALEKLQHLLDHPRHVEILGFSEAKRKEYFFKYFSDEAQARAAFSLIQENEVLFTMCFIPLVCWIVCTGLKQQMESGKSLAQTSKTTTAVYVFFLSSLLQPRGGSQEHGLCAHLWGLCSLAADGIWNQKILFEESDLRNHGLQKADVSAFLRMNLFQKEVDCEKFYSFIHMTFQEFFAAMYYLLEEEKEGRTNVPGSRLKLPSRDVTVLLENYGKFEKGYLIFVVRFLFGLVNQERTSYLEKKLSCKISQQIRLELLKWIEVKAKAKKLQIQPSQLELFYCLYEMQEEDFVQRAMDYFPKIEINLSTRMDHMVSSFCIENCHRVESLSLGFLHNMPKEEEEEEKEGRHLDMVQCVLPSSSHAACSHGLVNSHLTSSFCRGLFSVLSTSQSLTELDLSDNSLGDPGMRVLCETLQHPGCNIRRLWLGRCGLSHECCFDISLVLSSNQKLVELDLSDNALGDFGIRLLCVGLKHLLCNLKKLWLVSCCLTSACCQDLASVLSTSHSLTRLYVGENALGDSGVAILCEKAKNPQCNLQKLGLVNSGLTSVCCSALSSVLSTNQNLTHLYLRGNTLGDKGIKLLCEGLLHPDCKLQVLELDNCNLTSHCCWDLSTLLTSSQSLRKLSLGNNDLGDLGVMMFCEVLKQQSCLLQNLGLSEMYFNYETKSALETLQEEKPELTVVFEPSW
Protocol: The binding affinity was measured with a Monolith NT.Automated instrument as described previously. Recombinant human NLRP3 protein (500 nM) was labeled with 50 nM RED-tris-NTA dye (NanoTemper Technologies, MO-L018). […] The samples were loaded into NanoTemper glass capillaries, and thermophoresis curves were analyzed using the instrument.

[6] = system: caspase-1 and GSDMD cleavage; experiment: Western blot of cleavage of caspase-1 and GSDMD in J774A.1 cells; type: cell-based, murine; details: LPS 10 μg/mL/nigericin 10 μM
TNF-α = TNF-α production in J774A.1 cells under LPS/nigericin (ELISA); type: cell-based, murine
mitochondrial ROS = experiment: Mitochondrial ROS and integrity (MitoSOX/MitoTracker) in J774A.1 cells; type: cell-based, murine; details: LPS/nigericin, YQ128 10 μM
Protocol: J774A.1 cells (5 × 10^5 cells/mL) were plated in 12-well plates precoated with poly-L-lysine overnight. […] The supernatants were discarded, and the cells were washed with ice-cold PBS three times and fixed with 4% PFA in PBS for 15 min. DAPI (5 μg/mL) was used for nuclear staining. After that, the cells were washed with PBS three times, and fluorescence microscopy analyses were carried out using an Olympus IX73.
Figure S2. J774A.1 were primed with LPS (1 μg/mL) for 4.5 h and treated with or […]
h. Cells were stained with MitoSOX and MitoTracker red. Nuclei were stained with […]
Figure S3. YQ128 (A&B) and MCC950 (C&D) dose-dependently block the recognition of NLRP3 by D4D8T antibody. […]

competition of YM-I-27 labeling of NLRP3 (NLRP3 [1]; recombinant NLRP3 preincubated with competitor): completely blocked the interaction
SMILES: O=C(O)c1ccc(/C=C2/SC(=S)N(Cc3cccc(C(F)(F)F)c3)C2=O)cc1 [CY-09, reference compound]

pIC50 (NLRP3 inflammasome): 6.30
decrease of emission lifetime of Alexa Fluor 488 (FRET donor) (endogenous NLRP3): ~44 ps
SMILES: C#CCCC1(CCOc2ccc(Cl)cc2CN(CCc2ccc(S(=O)(=O)NCC#C)cc2)C(=O)Cc2ccsc2)N=N1 [YM-I-27]
in situ proteome labeling (NLRP3 [2]): successfully and efficiently recognized NLRP3 along with four other proteins
labeling of recombinant NLRP3 protein by probe (NLRP3 [1]; UV cross-linking, NBD-N3 click, fluorescent visualization): dose-dependently labeled the NLRP3 protein

pIC50 (NLRP3 inflammasome): 5.62
potency relative to YQ128 (fold less) (NLRP3 inflammasome; LPS/ATP, IL-1β): ~8 fold
SMILES: C#CCNS(=O)(=O)c1ccc(CCN(Cc2cc(Cl)ccc2OCCC2(CCc3cn(CCOCCOCCNC(=O)CCCCC4SCC5NC(=O)NC54)nn3)N=N2)C(=O)Cc2ccsc2)cc1 (centres unmarked) [YM-I-85]
photoaffinity labeling of proteins by probe (pull-down, Western blot) (NLRP3, NEK7, ASC): efficiently labeled NLRP3 and NEK7 in a dose-dependent manner but not ASC

pKd (NLRP3 NACHT domain): 6.78
pKd [5]: 6.93
SMILES: C#CCNS(=O)(=O)c1ccc(CCN(Cc2cc(Cl)ccc2OCCC)C(=O)Cc2ccsc2)cc1 [YQ128]
catalytic activity of caspase-1 (caspase-1): does not interfere with the catalytic activity of caspase-1
Pronase digestion pattern (DARTS) [3]: the digestion pattern of the full-length NLRP3 and the PYD-NACHT fragment, but not the PYD fragment, by Pronase was altered
levels of LPS-induced pro-IL-1β and NLRP3 [4]: neither YQ128 nor MCC950 changed the levels
formation of ASC specks (ASC specks): significantly suppressed the formation of ASC specks
cleavage of caspase-1 and GSDMD [6]: inhibitory effect
production of TNF-α (TNF-α): No inhibition
production of mitochondrial ROS and integrity (mitochondrial ROS): no significant effect
